# Measurements published in article PMC12135508 (Antimicrobial Agents and Chemotherapy, 2025).
# Read-outs that look alike come from different tables or passages of the source. Marks after values point to notes of the source that are not given here.
# Tests used:
# [1] = tested on: E. coli TOP10F´ pMBLe/KPC-2; experiment: MIC by broth microdilution, KPC-2-producing recombinant clone; type: cell-based; conditions: Escherichia coli, 50 µM IPTG, combinations given as β-lactam/inhibitor, read-out: Minimum inhibitory concentration
# Protocol: (§1) Ligation mixtures were transformed in chemically competent E. coli TOP10F´ cells, and recombinant clones were selected in Lysogeny broth (LB) agar supplemented with 20 µg/mL gentamicin or 30 µg/mL kanamycin, depending on whether the constructions were obtained in pMBLe or pET24a(+) vectors, respectively. Recombinant plasmids of the selected clones were extracted and sequenced to verify the identity of bla genes and their proper insertion.
# (§2) Minimum inhibitory concentrations (MICs) of different β-lactams and combinations with β-lactamase inhibitors were determined by an adaptation of the broth microdilution method by the CLSI ([49]), as follows. As we used E. coli recombinant clones harboring pMBLe/bla constructions, where protein production is regulated by isopropyl-β-D-thiogalactoside (IPTG) induction ([47]), antimicrobial susceptibility assays were performed using Mueller Hinton broth supplemented with 50 µM IPTG.
# E. coli TOP10F´ = experiment: microbe, parasite or virus in culture; type: cell-based; conditions: Escherichia coli, read-out: Minimum inhibitory concentration
# Text: (§3) The KPC-2 gene was recovered from a clinical Klebsiella pneumoniae strain previously characterized in our laboratory ([46]). E. coli TOP10 F´ (Invitrogen, USA) and E. coli BL21(DE3) (Novagen, Germany) were used as hosts for transformation experiments, to obtain recombinant clones for antimicrobial susceptibility and overexpression assays, respectively. Escherichia coli ATCC 25922 and ATCC 35218 were used as control strains for antimicrobial susceptibility assays.
# as §2, with “IPTG. Also, as control strains we included the E. coli Top10F’ (used as recipient strain in transformation assays), and the same strain transformed with the empty vector pMBLe, to have a comparison under the same isogenic background.” for “IPTG.”
# [2] = tested on: E. coli TOP10F´ pMBLe/KPC-14; experiment: MIC by broth microdilution, KPC-14-producing recombinant clone; type: cell-based, Escherichia coli; conditions: for MIC: Escherichia coli, E. coli TOP10F´ pMBLe/KPC-14, 50 µM IPTG, combinations given as β-lactam/inhibitor, read-out: Minimum inhibitory concentration; for MIC interpretation in KPC-14 recombinant clone: recombinant clone harboring KPC-14
# Protocol: as §1, §2
# KPC-14 [3] = target: T1, KPC-14 (Klebsiella pneumoniae, UniProt Q9F663, DEL241-242); experiment: Steady-state kinetics of β-lactam hydrolysis by KPC-14; type: biochemical; conditions: for kcat / Km: KPC-14
# T1 construct: amplify the entire blaKPC-14 gene with the cloning primers; made in house; host or cells: E. coli BL21(DE3), pET24a(+)
# Text: (Eq. 1) v=(Vmax×[S]) / (Km+[S])
# (Eq. 2) KI=KI obs / (1+[NCF]/KM(NCF))
# KPC-2 [4] = conditions: ceftazidime as reporter substrate, ref 20 Oueslati et al.; cited from earlier work
# KPC-14 [5] = tested on: KPC-14; set-up: method as in earlier work; conditions: ref 20 Oueslati et al., cited from earlier work
# E. coli TOP10F´/pMBLe = experiment: MIC by broth microdilution, empty-vector control clone; type: cell-based; conditions: Escherichia coli; E. coli TOP10F´ with empty vector pMBLe; 50 µM IPTG; combinations given as β-lactam/inhibitor; read-out: Minimum inhibitory concentration
# Text: as §3
# as §2, with “IPTG. Also, as control strains we included the E. coli Top10F’ (used as recipient strain in transformation assays), and the same strain transformed with the empty vector pMBLe, to have a comparison under the same isogenic background.” for “IPTG.”
# KPC-2 [6] = target: T2, KPC-2 (Klebsiella pneumoniae, UniProt Q9F663); experiment: Clavulanic acid inhibition and hydrolysis, KPC-2; type: biochemical
# T2 construct: The complete blaKPC-2 gene was amplified from whole DNA; made in house; host or cells: E. coli BL21(DE3), pET24a(+)
# Protocol: (§4) To assess if KPC-14 shares the same behavior, KI app and kinact values for clavulanic acid of both enzymes were determined as previously reported ([32], [33]). The initial velocity (V0) of clavulanic acid hydrolysis was monitored at 235 nm ([32]), mixing an inhibitor concentration five times the KM determined and 100 nM of enzyme. V0 obtained under this condition was considered the Vmax and was used to determine the kcat for clavulanic acid.
# KPC-14 [7] = target: T1, KPC-14; experiment: Clavulanic acid inhibition and hydrolysis, KPC-14; type: biochemical
# Protocol: as §4
# [8] = tested on: CC(=O)OCC1=C(C(=O)O)N2C(=O)[C@@H](NC(=O)Cc3cccs3)[C@H]2SC1; experiment: purified protein, by the assay type; conditions: other: KPC-2, 50 mM sodium phosphate pH 7.0, room temperature
# [9] = tested on: CCN1CCN(C(=O)N[C@@H](C(=O)N[C@@H]2C(=O)N3[C@@H]2SC(C)(C)[C@@H]3C(=O)O)c2ccccc2)C(=O)C1=O; experiment: purified protein, by the assay type; conditions: other: KPC-2, 50 mM sodium phosphate pH 7.0, room temperature
# [10] = tested on: CO/N=C(\C(=O)N[C@@H]1C(=O)N2C(C(=O)O)=C(CSc3nc(=O)c(=O)[nH]n3C)CS[C@H]12)c1csc(N)n1; experiment: purified protein, by the assay type; conditions: other: KPC-2; determined with nitrocefin as reporter in competitive assays; pH 7.0
# [11] = tested on: C[C@@H](O)[C@H]1C(=O)N2C(C(=O)O)=C(SCCN=CN)C[C@H]12; experiment: purified protein, by the assay type; conditions: other: KPC-2, 50 mM sodium phosphate pH 7.0, room temperature
# [12] = tested on: C[C@@H](O)[C@H]1C(=O)N2C(C(=O)O)=C(S[C@@H]3CN[C@H](C(=O)N(C)C)C3)[C@H](C)[C@H]12; experiment: purified protein, by the assay type; conditions: other: KPC-2, 50 mM sodium phosphate pH 7.0, room temperature
# [13] = tested on: CO/N=C(\C(=O)N[C@@H]1C(=O)N2C(C(=O)[O-])=C(C[N+]3(C)CCCC3)CS[C@H]12)c1csc(N)n1; experiment: purified protein, by the assay type; conditions: other: KPC-2, 50 mM sodium phosphate pH 7.0, room temperature
# [14] = tested on: CO/N=C(\C(=O)N[C@@H]1C(=O)N2C(C(=O)O)=C(COC(N)=O)CS[C@H]12)c1ccco1; experiment: purified protein, by the assay type; conditions: other: KPC-2, 50 mM sodium phosphate pH 7.0, room temperature
# [15] = tested on: CC(C)(O/N=C(\C(=O)N[C@@H]1C(=O)N2C(C(=O)[O-])=C(C[n+]3ccccc3)CS[C@H]12)c1csc(N)n1)C(=O)O; experiment: purified protein, by the assay type; conditions: other: KPC-2; determined with nitrocefin as reporter in competitive assays; pH 7.0
# [16] = E. coli TOP10F´ recipient strain, Mueller Hinton broth + 50 µM IPTG, combinations given as β-lactam/inhibitor
# [17] = 50 mM sodium phosphate pH 7.0, room temperature
# [18] = determined with nitrocefin as reporter in competitive assays
# T1 sequence (Q9F663 25-240, added parts left off, stated change not applied): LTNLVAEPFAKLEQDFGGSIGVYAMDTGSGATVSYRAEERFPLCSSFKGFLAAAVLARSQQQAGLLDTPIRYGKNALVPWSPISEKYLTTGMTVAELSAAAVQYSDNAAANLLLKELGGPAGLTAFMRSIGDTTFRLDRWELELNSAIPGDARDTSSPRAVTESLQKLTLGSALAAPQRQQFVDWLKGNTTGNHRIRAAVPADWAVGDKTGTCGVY
# T2 sequence (Q9F663 25-293 limits assumed): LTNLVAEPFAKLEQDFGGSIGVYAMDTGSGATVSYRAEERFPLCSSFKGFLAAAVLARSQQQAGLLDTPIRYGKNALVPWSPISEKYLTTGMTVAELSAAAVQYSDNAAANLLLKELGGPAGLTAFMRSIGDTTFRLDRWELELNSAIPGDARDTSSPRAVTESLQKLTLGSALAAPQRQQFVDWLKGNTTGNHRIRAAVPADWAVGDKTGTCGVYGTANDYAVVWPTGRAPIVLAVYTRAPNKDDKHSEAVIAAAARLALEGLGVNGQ
compound,measurement,setting,value
CC1(C)S[C@@H]2[C@H](NC(=O)[C@H](N)c3ccccc3)C(=O)N2[C@H]1C(=O)O [Ampicillin],MIC,[1],1020 µg/mL
same,MIC,E. coli TOP10F´; [16],2 µg/mL
same,MIC,[2],64 µg/mL
same,"kcat/KM fold lower, KPC-14 vs KPC-2",KPC-14 [3],24 fold
same,kcat,KPC-14 [3],0.83 ± 0.02 s⁻¹
same,Km,KPC-14 [3]; [17],95 ± 10 µM
"NC(=O)[C@@H]1CC[C@@H]2CN1C(=O)N2OS(=O)(=O)O [Avibactam, avibactam]",IC50,KPC-2 [4],[…]
same,IC50,"KPC-14 [5]; KPC-14, ceftazidime as reporter substrate",107 nM
C[C@H]1[C@H](NC(=O)/C(=N\OC(C)(C)C(=O)O)c2csc(N)n2)C(=O)N1S(=O)(=O)O [Aztreonam],MIC,E. coli TOP10F´; [16],≤ 0.25 µg/mL
same,MIC,E. coli TOP10F´/pMBLe,≤ 0.25 µg/mL
CO/N=C(\C(=O)N[C@@H]1C(=O)N2C(C(=O)[O-])=C(C[N+]3(C)CCCC3)CS[C@H]12)c1csc(N)n1 [Cefepime],MIC,[1],1 µg/mL
same,MIC,E. coli TOP10F´; [16],≤ 0.25 µg/mL
same,MIC,[2],1 µg/mL
same,"hydrolytic efficiency (kcat/KM) fold increase, KPC-14 vs KPC-2",KPC-14 [3],3 fold
same,kcat,KPC-14 [3],0.61 ± 0.03 s⁻¹
same,Km,KPC-14 [3]; [17],7 ± 1 µM
same,MIC,E. coli TOP10F´/pMBLe,≤ 0.25 µg/mL
CC(C)(O/N=C(\C(=O)N[C@@H]1C(=O)N2C(C(=O)[O-])=C(C[n+]3ccccc3)CS[C@H]12)c1csc(N)n1)C(=O)O [Ceftazidime],MIC,[1],2 µg/mL
same,MIC,E. coli TOP10F´; [16],0.12 µg/mL
same,MIC,[2],32 µg/mL
CO/N=C(\C(=O)N[C@@H]1C(=O)N2C(C(=O)O)=C(CSc3nc(=O)c(=O)[nH]n3C)CS[C@H]12)c1csc(N)n1 [Ceftriaxone],MIC,E. coli TOP10F´,≤ 0.25 µg/mL
same,MIC,E. coli TOP10F´/pMBLe,≤ 0.25 µg/mL
CC(=O)OCC1=C(C(=O)O)N2C(=O)[C@@H](NC(=O)Cc3cccs3)[C@H]2SC1 [Cephalothin],MIC,[1],256 µg/mL
same,MIC,E. coli TOP10F´; [16],8 µg/mL
same,MIC,[2],64 µg/mL
C[C@@H](O)[C@H]1C(=O)N2C(C(=O)O)=C(SCCN=CN)C[C@H]12 [Imipenem],MIC,[1],2 µg/mL
same,MIC,E. coli TOP10F´; [16],0.12 µg/mL
same,MIC,[2],0.25 µg/mL
same,MIC interpretation in KPC-14 recombinant clone,[2],within the susceptibility range
same,"kcat/KM fold lower, KPC-14 vs KPC-2",KPC-14 [3],11 fold
same,kcat,KPC-14 [3],(5.93 ± 0.02) × 10^−3 s^−1
same,Km,KPC-14 [3]; [18],0.55 ± 0.02 µM
same,"turnover (kcat) fold decrease, KPC-14 vs KPC-2",KPC-14 [3]; this work,"2,500 fold"
same,MIC,E. coli TOP10F´/pMBLe,0.12 µg/mL
same,"turnover (kcat) fold reduction, KPC-14",KPC-14 [5],"1,000 fold"
C[C@@H](O)[C@H]1C(=O)N2C(C(=O)O)=C(S[C@@H]3CN[C@H](C(=O)N(C)C)C3)[C@H](C)[C@H]12 [Meropenem],MIC,[1],1 µg/mL
same,MIC,E. coli TOP10F´; [16],≤ 0.03 µg/mL
same,MIC,[2],≤ 0.03 µg/mL
same,MIC interpretation in KPC-14 recombinant clone,[2],within the susceptibility range
same,"kcat/KM fold lower, KPC-14 vs KPC-2",KPC-14 [3],"1,000 fold"
same,kcat,KPC-14 [3],(8.8000 ± 0.0001) × 10^−4 s^−1
same,Km,KPC-14 [3]; [18],10 ± 1 µM
same,MIC,E. coli TOP10F´/pMBLe,≤ 0.03 µg/mL
O=C(O)[C@H]1/C(=C/CO)O[C@@H]2CC(=O)N21 [clavulanic acid],inhibition of nitrocefin hydrolysis at 300 µM inhibitor,KPC-2 [6]; 300 µM clavulanic acid,residual hydrolytic activity
same,kcat (turnover of inhibitor hydrolysis),"KPC-2 [6]; 235 nm, inhibitor five times above KM, 100 nM enzyme",11.60 ± 0.01 s⁻¹
same,KM (Ki app expressed as KM),KPC-2 [6]; nitrocefin competition,80000 ± 8000 nM
same,hydrolysis of inhibitor monitored at 235 nm,"KPC-14 [7]; inhibitor five times above Ki app, 100 nM enzyme",No hydrolytic activity was detected
same,Ki,"KPC-14 [7]; nitrocefin competition, read-out: Ki app",8500 ± 1100 nM
same,concentration sufficient for complete inhibition of enzyme activity,KPC-14 [7]; nitrocefin hydrolysis time courses,16 µM
KPC-2 (Klebsiella pneumoniae),Km,[8],159 ± 15 µM
same,kcat,[8],56 ± 2 s⁻¹
same,kcat/Km,[8],360000 ± 40000 M⁻¹ s⁻¹
same,Km,[9],97 ± 12 µM
same,kcat,[9],29 ± 1 s⁻¹
same,kcat/Km,[9],300000 ± 40000 M⁻¹ s⁻¹
same,Km,[10],267 ± 29^a µM
same,kcat,[10],52 ± 7 s⁻¹
same,kcat/Km,[10],194000 ± 6000 M⁻¹ s⁻¹
same,Km,[11],120 ± 9 µM
same,kcat,[11],15 ± 0.4 s⁻¹
same,kcat/Km,[11],120000 ± 10000 M⁻¹ s⁻¹
same,Km,[12],31 ± 2 µM
same,kcat,[12],2.85 ± 0.06 s⁻¹
same,kcat/Km,[12],91000 ± 6000 M⁻¹ s⁻¹
same,Km,[13],59 ± 5 µM
same,kcat,[13],1.31 ± 0.04 s⁻¹
same,Km,[14],319 ± 48 µM
same,kcat,[14],85 ± 8 s⁻¹
same,kcat/Km,[14],270000 ± 50000 M⁻¹ s⁻¹
same,Km,[15],"1,319 ± 145^a µM"
same,kcat,[15],0.9 ± 0.1 s⁻¹
same,kcat/Km,[15],830 ± 40 M⁻¹ s⁻¹
